Values of other authors as cited in patent US6620802B1, “Methods of treating mild cognitive impairment using a glucocorticoid-specific receptor antagonist” (Corcept Therapeutics, Inc., priority 1999, dated 2003).

Legend:
[1] = one study, Kawai (1989) supra
rat hippocampus = settings: Talmi et al. 1996
[2] = tested on: mouse hippocampus neuronal cells; settings: Behl et al. 1997
[3] = target: T1, glucocorticoid (GR) receptor (Homo sapiens, UniProt P04150); settings: literature statement
T1 sequence (P04150 1-777): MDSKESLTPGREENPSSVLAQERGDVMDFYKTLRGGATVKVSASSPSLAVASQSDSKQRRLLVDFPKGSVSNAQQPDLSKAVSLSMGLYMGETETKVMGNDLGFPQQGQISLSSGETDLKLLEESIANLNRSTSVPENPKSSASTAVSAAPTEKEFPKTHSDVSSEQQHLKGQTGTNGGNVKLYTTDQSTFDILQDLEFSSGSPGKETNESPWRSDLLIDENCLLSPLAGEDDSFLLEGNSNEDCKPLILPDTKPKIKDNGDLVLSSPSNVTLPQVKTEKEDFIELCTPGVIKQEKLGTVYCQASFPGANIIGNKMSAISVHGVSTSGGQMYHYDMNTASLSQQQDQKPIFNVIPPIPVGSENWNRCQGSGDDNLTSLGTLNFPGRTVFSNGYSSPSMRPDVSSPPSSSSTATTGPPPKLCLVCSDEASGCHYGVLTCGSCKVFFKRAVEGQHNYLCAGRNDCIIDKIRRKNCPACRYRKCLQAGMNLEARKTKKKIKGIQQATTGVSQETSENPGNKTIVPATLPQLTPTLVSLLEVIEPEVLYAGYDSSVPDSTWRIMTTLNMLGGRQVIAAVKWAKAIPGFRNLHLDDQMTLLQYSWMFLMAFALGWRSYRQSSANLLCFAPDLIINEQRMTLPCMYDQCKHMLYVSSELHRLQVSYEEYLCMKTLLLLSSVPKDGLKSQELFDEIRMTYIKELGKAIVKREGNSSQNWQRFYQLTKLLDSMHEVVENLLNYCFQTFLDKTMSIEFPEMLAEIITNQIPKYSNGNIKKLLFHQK

progesterone receptor = target: T2, progesterone receptor (Homo sapiens, UniProt P06401); settings: literature statement
T2 sequence (P06401 1-933): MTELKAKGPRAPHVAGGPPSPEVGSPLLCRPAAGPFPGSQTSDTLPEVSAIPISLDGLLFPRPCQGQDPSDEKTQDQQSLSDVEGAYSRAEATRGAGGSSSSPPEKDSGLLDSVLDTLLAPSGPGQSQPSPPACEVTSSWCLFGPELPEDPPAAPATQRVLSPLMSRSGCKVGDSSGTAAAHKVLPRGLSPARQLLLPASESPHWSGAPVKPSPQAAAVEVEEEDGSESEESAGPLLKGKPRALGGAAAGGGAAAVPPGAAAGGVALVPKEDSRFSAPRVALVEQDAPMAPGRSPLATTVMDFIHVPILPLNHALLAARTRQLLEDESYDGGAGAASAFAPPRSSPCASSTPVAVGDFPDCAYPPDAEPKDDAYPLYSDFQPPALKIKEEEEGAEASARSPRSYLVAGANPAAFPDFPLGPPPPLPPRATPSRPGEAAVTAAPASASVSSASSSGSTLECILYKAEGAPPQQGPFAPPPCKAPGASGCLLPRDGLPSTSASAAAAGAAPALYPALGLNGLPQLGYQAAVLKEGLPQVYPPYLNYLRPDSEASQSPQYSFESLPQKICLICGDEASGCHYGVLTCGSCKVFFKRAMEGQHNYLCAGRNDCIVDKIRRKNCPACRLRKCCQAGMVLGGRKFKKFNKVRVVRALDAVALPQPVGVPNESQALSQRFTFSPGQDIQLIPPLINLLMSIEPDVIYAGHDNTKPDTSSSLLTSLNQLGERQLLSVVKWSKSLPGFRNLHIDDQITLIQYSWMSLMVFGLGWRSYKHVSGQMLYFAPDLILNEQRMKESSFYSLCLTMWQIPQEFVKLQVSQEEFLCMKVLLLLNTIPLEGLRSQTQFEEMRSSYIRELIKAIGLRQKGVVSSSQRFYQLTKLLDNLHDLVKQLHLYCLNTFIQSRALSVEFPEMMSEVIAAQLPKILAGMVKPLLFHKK

Row | Compound | share of the daily dose excreted in the urine [1] | effect on age-associated electrophysiological changes (rat hippocampus) | protection against oxidative stress-induced neuronal cell death [2] | GR antagonist activity [3] | progesterone receptor antagonist activity (progesterone receptor)
1 | CC#C[C@]1(O)CC[C@H]2[C@@H]3CCC4=CC(=O)CCC4=C3[C@@H](c3ccc(N(C)C)cc3)C[C@@]21C [Mifepristone, 17-beta-hydroxy-11-beta-(4-dimethyl-aminophenyl)-17-alpha(1-propynyl)-estra-4,9-dien-3-one] | less than 0.5% | effective at abrogating some of the age-associated electrophysiological changes | providing protection against oxidative stress-induced neuronal cell death | powerful antagonist | powerful antagonist
2 | CC#C[C@]1(O)CC[C@H]2[C@@H]3CCC4=CC(=O)CCC4=C3[C@@H](c3ccc(OCCN(C)C)cc3)C[C@@]21C [RU009, 11-beta-(4-dimethyl-aminoethoxyphenyl)-17-alpha-(propynyl-17-beta-hydroxy-4,9-estradien-3-one)] |  |  |  | shown to have GR antagonist effects | 
